Where two headings read alike, the source gives them in different places.
Columns and labels:
in vitro [1] = conditions: mouse
in vitro [2] = conditions: human
physchem = conditions: pH 7.4
[3] = Metabolic stability CLint, mouse (Tables H1, H2)
logD 7.4 = conditions: pH 7.4
[4] = Metabolic stability CLint, human (Tables H1, H2)
Metabolic stability MLM = conditions: for Met stab MLM, 15 min / Met stab MLM, 60 min: % parent remained per Table G2
KNS62 = KNS62 growth inhibition (SAR tables); type: cell-based
H226 = H226 growth inhibition (SAR tables); type: cell-based; conditions: for GI50: Homo sapiens, NCI-H226
TEAD = assay: WB primary assay (SAR tables F1, F3A); type: biochemical
[5] = Aqueous solubility (Aq Sol); type: physicochemical
[6] = Pharmacokinetics / oral bioavailability in male CD-1 mice; type: in vivo; conditions: for AUC(0-inf): Table F2A; for half-life: read-out: t1/2, β (converted)
Text: Example G. Oral Bioavailability of MGH-CP-715 in Male CD-1Mice

[7] = Metabolic stability in mouse hepatic microsomes (Scripps Florida DMPK Core); type: in vitro ADME; conditions: for half-life / microsomal CLint: mouse, liver microsomes; for half-life: 1 mg/mL hepatic microsomes; for microsomal CLint: hepatic microsomes, read-out: Intrinsic Clearance, Mouse (Clint); for metabolic stability (in words): Tables E1 and E2, human and mouse microsomes
H226 cells = assay: Cell proliferation assay (MTT), H226; conditions: 6 days, FIG. 8C
TEAD2 = TEAD2 (Homo sapiens, UniProt Q15562); assay: Inhibition of TEAD2 auto-palmitoylation in vitro; conditions: FIG. 1; 0.05 and 0.5 μM for 30 mins
[8] = Metabolic stability in human hepatic microsomes (Scripps Florida DMPK Core); type: in vitro ADME; conditions: liver microsomes; for half-life: 1 mg/mL hepatic microsomes; for microsomal CLint: hepatic microsomes, read-out: Intrinsic Clearance, Human (Clint)
[9] = male, CD-1, mouse, in vivo, 1 mg/Kg IV
[10] = male, CD-1, mouse, in vivo, 10 mg/Kg PO

TEAD2, sequence (Q15562 whole entry): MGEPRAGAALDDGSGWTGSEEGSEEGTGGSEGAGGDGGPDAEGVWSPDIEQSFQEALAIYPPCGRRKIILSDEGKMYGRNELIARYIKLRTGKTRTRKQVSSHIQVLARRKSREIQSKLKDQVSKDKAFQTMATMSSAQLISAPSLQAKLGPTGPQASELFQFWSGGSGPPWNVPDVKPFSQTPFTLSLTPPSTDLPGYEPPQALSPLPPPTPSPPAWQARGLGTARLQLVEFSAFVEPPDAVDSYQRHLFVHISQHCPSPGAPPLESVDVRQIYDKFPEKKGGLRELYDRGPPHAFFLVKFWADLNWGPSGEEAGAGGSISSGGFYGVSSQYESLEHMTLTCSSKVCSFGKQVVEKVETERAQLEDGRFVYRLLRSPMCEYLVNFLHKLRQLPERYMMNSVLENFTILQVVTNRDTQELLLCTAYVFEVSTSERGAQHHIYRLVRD

Work on `NC(=O)c1cncc(OC(=O)N2CCC(CCc3cccc(C(=O)N4CCCC4)c3)CC2)c1` yielded a CLint scaled (in vitro [1]) of 90 mL/min/kg, a CLint scaled (in vitro [2]) of 86 mL/min/kg and a logD (physchem) of 2.6.
In the case of `O=C(NCCc1cccc(F)c1)C1CCN(C(=O)Oc2ccccc2)CC1`, the CLint scaled [3] is reported as 87 mL/min/kg, the logD (logD 7.4) is reported as 2.59 and the CLint scaled [4] is reported as 54 mL/min/kg.
With `O=C(Nc1ccccc1)C1CCN(C(=O)Oc2cccnc2)CC1` the CLint scaled [3] was 47 mL/min/kg, the logD (logD 7.4) was 2.16 and the CLint human [4] was “no depletion (stable)”.
For `C[C@@H]1CN(C(=O)Nc2ccccc2)[C@@H](C)CN1C(=O)c1cccc(OCCC2CCCCC2)c1` [MGH-CP-709], the Met stab MLM, 15 min (Metabolic stability MLM; 15 min) was 26%, the Met stab MLM, 60 min (Metabolic stability MLM; 60 min) was < 5% and the “KNS62: value at 1 μM” value (KNS62) was 28. The “KNS62: value at 10 μM” value (KNS62) was 46, the GI50 (H226) was 1970 nM and the “WB: % inh. @ 1 μM” value (TEAD) was 45%. For the same compound, the “WB: % inh. @ 10 μM” value (TEAD) was 77% and the “Aq Sol” value [5] was 2 µM.
In the case of `CC1CN(C(=O)Nc2ccccc2)CCN1C(=O)c1cccc(OCCC2CCCCC2)c1` (stereo not drawn) [MGH-CP-710], the Met stab MLM, 15 min (Metabolic stability MLM; 15 min) is reported as 41%, the Met stab MLM, 60 min (Metabolic stability MLM; 60 min) is reported as < 5% and the “KNS62: value at 1 μM” value (KNS62) is reported as 35. For the same compound, the “KNS62: value at 10 μM” value (KNS62) was 51, the GI50 (H226) was 1040 nM and the “WB: % inh. @ 1 μM” value (TEAD) was 54%. The “WB: % inh. @ 10 μM” value (TEAD) was 81% and the “Aq Sol” value [5] was <2 µM.
With `O=C(Oc1ccccc1)N1CCN(C(=O)c2cccc(OCCC3CCCCC3)c2)CC1` [MGH-CP-714] the Met stab MLM, 15 min (Metabolic stability MLM; 15 min) was 29%, the Met stab MLM, 60 min (Metabolic stability MLM; 60 min) was < 5% and the “KNS62: value at 1 μM” value (KNS62) was 10. The “KNS62: value at 10 μM” value (KNS62) was 48, the GI50 (H226) was 2640 nM and the “WB: % inh. @ 1 μM” value (TEAD) was 16%. The “WB: % inh. @ 10 μM” value (TEAD) was 94% and the “Aq Sol” value [5] was <2 µM.
With `O=C(Nc1ccccc1)N1CCN(Cc2cccc(OCCC3CCCCC3)c2)CC1` [MGH-CP-715] the “F (oral bioavailability)” value ([6]; 10 mg/Kg PO versus 1 mg/Kg IV) was ~5.7%, the bioavailability ([6]; male, CD-1, mouse, in vivo, oral, 10 mg/Kg, 10 mg/Kg PO versus 1 mg/Kg IV, read-out: F (oral bioavailability)) was ~5% and the AUC(0-t) [6, 9] was 663 ng·h/mL. It also gave an MRT [6, 9] of 1.47 h, a clearance [6, 9] of 22.6 mL/min/kg and an AUC(0-inf) [6, 9] of 736 ng·h/mL. For the same compound, the Cmax ([6]; male, CD-1, mouse, in vivo, 1 mg/Kg IV, read-out: C0/Cmax (C0)) was 834 ng/mL, the Vd ([6]; male, CD-1, mouse, in vivo, 1 mg/Kg IV, read-out: VSS) was 3.61 L/kg and the half-life [6, 9] was 223 min. The AUC(0-t) [6, 10] was 394 ng·h/mL, the MRT [6, 10] was 2.62 h and the Tmax [6, 10] was 15 min. It also gave an AUC(0-inf) [6, 10] of 422 ng·h/mL, a Cmax ([6]; male, CD-1, mouse, in vivo, 10 mg/Kg PO, read-out: C0/Cmax (Cmax)) of 108 ng/mL and a half-life [6, 10] of 112 min. For the same compound, the “clearance (in words)” value ([6]; mouse, in vivo) was “low”, the “volume of distribution (in words)” value ([6]; mouse, in vivo) was “high” and the “% Parent remained MLM, 15 min” value (Metabolic stability MLM; 15 min, Table G2) was 66%. The Met stab MLM, 15 min (Metabolic stability MLM; 15 min) was 66%, the “% Parent remained MLM, 60 min” value (Metabolic stability MLM; 60 min, Table G2) was 15% and the Met stab MLM, 60 min (Metabolic stability MLM; 60 min) was 15%. The “KNS62: value at 1 μM” value (KNS62) was 4, the “KNS62: value at 10 μM” value (KNS62) was 57 and the “H226: value at 1 μM” value (H226; 1 μM) was 16. The “H226: value at 10 μM” value (H226; 10 μM) was 69, the “WB: % inh. @ 1 μM” value (TEAD) was 35% and the “WB: % inh. @ 10 μM” value (TEAD) was 95%. For the same compound, the “Aq Sol” value [5] was <2 µM.
For `O=C(Nc1ccccc1)N1CCN(C(=O)c2ccnc(OCCC3CCCCC3)c2)CC1` [MGH-CP-716], the “MLM stability (in words)” value (Metabolic stability MLM) was “not improved”, the Met stab MLM, 15 min (Metabolic stability MLM; 15 min) was 40% and the Met stab MLM, 60 min (Metabolic stability MLM; 60 min) was < 5%. For the same compound, the “KNS62: value at 1 μM” value (KNS62) was 54, the “KNS62: value at 10 μM” value (KNS62) was 60 and the “activity in cellular assays (in words)” value (H226) was “active”. The GI50 (H226) was 236 nM, the “WB: % inh. @ 1 μM” value (TEAD) was 59% and the “WB: % inh. @ 10 μM” value (TEAD) was 96%.
For `O=C(Nc1ccccc1)N1C[C@@H]2C[C@H]1CN2C(=O)c1cccc(OCCC2CCCCC2)c1` [MGH-CP-717], the “MLM stability (in words)” value (Metabolic stability MLM) was “poor”, the Met stab MLM, 15 min (Metabolic stability MLM; 15 min) was 6% and the Met stab MLM, 60 min (Metabolic stability MLM; 60 min) was < 5%. For the same compound, the “activity in primary assay (in words)” value (TEAD) was “inactive”, the “WB: % inh. @ 1 μM” value (TEAD) was −2% and the “WB: % inh. @ 10 μM” value (TEAD) was 22%.
For `O=C(Oc1ccccc1)N1CCN(Cc2cccc(OCCC3CCCCC3)c2)CC1` [MGH-CP-718], the Met stab MLM, 15 min (Metabolic stability MLM; 15 min) was 59%, the Met stab MLM, 60 min (Metabolic stability MLM; 60 min) was 13% and the “MLM stability (in words)” value (Metabolic stability MLM; mouse, microsomes) was “moderately stable”. For the same compound, the “activity in primary assay (in words)” value (TEAD) was “inactive”, the “WB: % inh. @ 1 μM” value (TEAD) was −4% and the “WB: % inh. @ 10 μM” value (TEAD) was 11%.
Work on `O=C(Nc1ncccn1)N1CCN(C(=O)c2cccc(OCCC3CCCCC3)c2)CC1` [TM23] yielded a CLint scaled [3] of 156 mL/min/kg, a logD (logD 7.4) of 2.38 and a CLint scaled [4] of 109 mL/min/kg.
In the case of `O=C(Nc1ccccc1)N1CCN(C(=O)c2cccc(OCCC3CCOCC3)c2)CC1` [TM45, N-phenyl-4-(3-(2-(tetrahydro-2H-pyran-4-yl)ethoxy)benzoyl)piperazine-1-carboxamide], the half-life [7] is reported as 11.2 min, the microsomal CLint [7] is reported as 62 µL/min/mg and the “H226 anti-proliferative potency relative to TM2 (in words)” value (H226 cells) is reported as “less potent than TM2”. The “inhibition of TEAD2 auto-palmitoylation (in words)” value (TEAD2) was “significantly decrease the activities”.
With `Nc1cccc(NC(=O)N2CCN(C(=O)c3cccc(OCCC4CCCCC4)c3)CC2)c1` [TM93] the “metabolic stability (in words)” value [7] was “improved metabolic stability”, the half-life [7] was 16.7 min and the microsomal CLint [7] was 41 µL/min/mg. For the same compound, the half-life [8] was 11.1 min and the microsomal CLint [8] was 62 µL/min/mg.
`O=C(Nc1ccccc1)N1CCN(C2(c3cccc(OCCc4ccccc4)c3)COC2)CC1` [TM97] showed a half-life [7] of 1.7 min and a microsomal CLint [7] of 415 µL/min/mg.
For `O=C(Nc1ccccc1)N1CCN([S+]([O-])c2cccc(OCCc3ccccc3)c2)CC1` (stereo not drawn) [TM100], the “metabolic stability (in words)” value [7] was “improved metabolic stability”, the half-life [7] was 9.6 min and the microsomal CLint [7] was 72 µL/min/mg. For the same compound, the half-life [8] was 5.8 min and the microsomal CLint [8] was 120 µL/min/mg.
For `Nc1ccc(NC(=O)N2CCN(C(=O)c3cccc(OCCC4CCCCC4)c3)CC2)cc1` [TM112, N-(4-aminophenyl)-4-(3-(2-cyclohexylethoxy)benzoyl)piperazine-1-carboxamide], the “H226 anti-proliferative potency relative to TM2 (in words)” value (H226 cells) was “less potent than TM2”.

Reference: patent publication US20240279191A1, “SMALL MOLECULE INHIBITORS OF TEAD-YAP” (The General Hospital Corporation, priority 2021, published 2024)
